This is an account of results in patent US12281122B1, “PI3K inhibitors” (Cogent Biosciences, Inc., priority 2023, dated 2025).

As usually defined, the IC50 is the concentration at which inhibition is half-maximal. A low value points to greater potency in that assay.

Test [1] relates to T47D (PI3Kα-H1047R) cell line. Nature of the test: HTRF phospho-AKT(S473) cell assay in T47D cells. The class given is cell-based, human. The procedure: (§1) Compounds in the present disclosure were tested in a cell based HTRF phospho-AKT(S473) (CisBio/Revvity) assay in human breast cancer cell lines as a measurement of PIK3CA activity through measuring AKT, a downstream effector. The activity of mutant PI3Kα-H1047R and PI3Kα-Wild Type was measured in the T47D (PI3Kα-H1047R) and SKBR3 (PI3Kα-Wild Type) cell lines, respectively. T47D cells were plated at 20,000 cells per well in 50 μL in RPMI medium supplemented with 10% FBS and 0.2 units/mL insulin, in 384 well plates. SKBR3 cells were plated at 25,000 cells per well in 50 μL in McCoy's 5A medium supplemented with 10% FBS, in 384 well plates. Cells were plated using a Combi Multidrop reagent dispenser (ThermoFisher), and placed in 5% CO2, 37° C. incubator overnight to adhere.
(§2) The next day, cells were treated with either compounds or vehicle (DMSO) in a 12-fold dose response curve of 1:3 dilutions, with 5 μM and 10 μM as the top concentrations for the T47D and SKBR3 cell lines, respectively. Compound treatment was facilitated via the D300e digital dispenser (Tecan), with a maximum DMSO concentration of 0.5%. Following compound addition, cell plates were incubated for 2 hours in 5% CO2, 37° C. incubator. The SKBR3 cells were stimulated and treated with 70 ng/ml PDGF-BB ligand (ThermoFisher) for the remaining 15 minutes of the incubation. Following compound incubation, compound and media was aspirated from the cells and 25 μL of supplemented lysis buffer was added per well, and incubated for 45 minutes at room temperature, shaking at 600 rpm. Next, 16 μL of cell lysate was added to a 384 well low volume ProxyPlate (Perkin Elmer/Revvity) mixed with 4 μL of HTRF antibodies (1:1 Eu Cryptate+d2 Cryptate). HTRF supplemented lysis buffer and antibody reagents were used from the phosphor-AKT(S473) HTRF assay kit (CisBio/Revvity), following manufacturers protocol recommendations. Plates were sealed and incubated at 4° C. overnight.
(§3) The following day, plates were centrifuged for 1 minute at 1000 rpm, and read on a PHERAstar plate reader. IC50 values were calculated using Spotfire software.

Test [2] has as its system SKBR3 (PI3Kα-Wild Type) cell line. In words: HTRF phospho-AKT(S473) cell assay in SKBR3 cells. The format is cell-based, human. The procedure:
as §1, §2, §3

The mark [3] stands for this setting: Homo sapiens; T47D (PI3Kα-H1047R) cells, HTRF phospho-AKT(S473), 2 hours compound incubation.
Setting [4] is: Homo sapiens, SK-BR-3; SKBR3 (PI3Kα-Wild Type) cells, HTRF phospho-AKT(S473), 2 hours compound incubation, PDGF-BB stimulated.
The mark [5] stands for this setting: Homo sapiens; HTRF phospho-AKT(S473), T47D (PI3Kα-H1047R) cells, 2 hours compound incubation.
Where [6] appears, read: Homo sapiens, SK-BR-3; HTRF phospho-AKT(S473), SKBR3 (PI3Kα-Wild Type) cells, 2 hours compound incubation, PDGF-BB stimulated.

As to `Cc1cc([C@@H](C)Nc2ccc(Cl)nc2C(=O)NS(C)(=O)=O)c2nc(N3CCC(c4ccn(C(C)C)n4)CC3)n(C)c(=O)c2c1` [Compound 249, (R)-6-chloro-3-((1-(2-(4-(1-isopropyl-1H-pyrazol-3-yl)piperidin-1-yl)-3,6-dimethyl-4-oxo-3,4-dihydroquinazolin-8-yl)ethyl)amino)-N-(methylsulfonyl) picolinamide], the results for the IC50 in test [1] (setting [3]) and in test [2] (setting [4]) were below 250 nM and 1000 to 5000 nM, respectively.

Turning to `Cc1cc([C@@H](C)Nc2ccc(Cl)nc2C(=O)NS(C)(=O)=O)c2nc(N3C[C@@H]4[C@H](C3)[C@H]4c3cnc(C)nc3C)n(C)c(=O)c2c1` [Compound 578, 6-chloro-3-(((R)-1-(2-((1R,5S,6S)-6-(2,4-dimethylpyrimidin-5-yl)-3-azabicyclo[3.1.0]hexan-3-yl)-3,6-dimethyl-4-oxo-3,4-dihydroquinazolin-8-yl)ethyl)amino)-N-(methylsulfonyl) picolinamide], the 50% inhibitory concentration (IC50) in test [1] (setting [5]) was below 250 nM; in test [2] (setting [6]), 1000 to 5000 nM.

Consider `CC(=O)N1CCC2(CC1)CCN(c1nc3c([C@@H](C)Nc4ccc(Cl)nc4C(=O)NS(C)(=O)=O)cc(C)cc3c(=O)n1C)CC2` [Compound 280, (R)-3-((1-(2-(9-acetyl-3,9-diazaspiro[5.5]undecan-3-yl)-3,6-dimethyl-4-oxo-3,4-dihydroquinazolin-8-yl)ethyl)amino)-6-chloro-N-(methylsulfonyl) picolinamide], for which the IC50 was below 250 nM in test [1] (setting [3]) and 1000 to 5000 nM in test [2] (setting [4]).

For the molecule `Cc1cc([C@@H](C)Nc2ccc(Cl)nc2C(=O)NS(C)(=O)=O)c2nc(-c3ccc(-c4ccn(C)n4)c(F)c3)n(C)c(=O)c2c1` [Compound 787, (R)-6-chloro-3-((1-(2-(3-fluoro-4-(1-methyl-1H-pyrazol-3-yl)phenyl)-3,6-dimethyl-4-oxo-3,4-dihydroquinazolin-8-yl)ethyl)amino)-N-(methylsulfonyl) picolinamide], the figures for the half-inhibitory concentration (IC50) in test [1] (setting [5]) and in test [2] (setting [6]) were below 250 nM and 1000 to 5000 nM, respectively.

In the case of `Cc1cc([C@@H](C)Nc2ccc(Cl)nc2C(=O)NS(C)(=O)=O)c2nc(N3CC[C@@H](Oc4cc[nH]n4)C3)n(C)c(=O)c2c1` [Compound 363, 3-(((R)-1-(2-((R)-3-((1H-pyrazol-3-yl)oxy)pyrrolidin-1-yl)-3,6-dimethyl-4-oxo-3,4-dihydroquinazolin-8-yl)ethyl)amino)-6-chloro-N-(methylsulfonyl) picolinamide], the IC50 in test [1] (setting [3]) is below 250 nM; in test [2] (setting [4]) it was 1000 to 5000 nM.

On to `CO[C@H]1CCC2(CCN(c3nc4c([C@@H](C)Nc5ccc(Cl)nc5C(=O)NS(C)(=O)=O)cc(C)cc4c(=O)n3C)CC2)OC1` (mixture of isomers) [Compound 721, 6-chloro-3-(((R)-1-(2-((RS)-3-methoxy-1-oxa-9-azaspiro[5.5]undecan-9-yl)-3,6-dimethyl-4-oxo-3,4-dihydroquinazolin-8-yl)ethyl)amino)-N-(methylsulfonyl) picolinamide], for which the IC50 in test [1] (setting [5]) was 250 to 500 nM; in test [2] (setting [6]) it was at least 5000 nM.

Regarding `Cc1cc([C@@H](C)Nc2ccc(Cl)nc2C(=O)NS(C)(=O)=O)c2nc(N3CCC(c4cc5ccccn5n4)CC3)n(C)c(=O)c2c1` [Compound 692, (R)-6-chloro-3-((1-(3,6-dimethyl-4-oxo-2-(4-(pyrazolo[1,5-a]pyridin-2-yl)piperidin-1-yl)-3,4-dihydroquinazolin-8-yl)ethyl)amino)-N-(methylsulfonyl) picolinamide], the IC50 is 250 to 500 nM in test [1] (setting [5]) and at least 5000 nM in test [2] (setting [6]).

Consider `Cc1cc([C@@H](C)Nc2ccc(Cl)nc2C(=O)NS(C)(=O)=O)c2nc(N3Cc4cn(-c5ccncc5)nc4C3)n(C)c(=O)c2c1` [Compound 192, (R)-6-chloro-3-((1-(3,6-dimethyl-4-oxo-2-(2-(pyridin-4-yl)-2,6-dihydropyrrolo[3,4-c]pyrazol-5(4H)-yl)-3,4-dihydroquinazolin-8-yl)ethyl)amino)-N-(methylsulfonyl) picolinamide], for which the 50% inhibitory concentration (IC50) in test [1] (setting [3]) is below 250 nM; in test [2] (setting [4]) it was 1000 to 5000 nM.

For the molecule `Cc1cc([C@@H](C)Nc2ccc(Cl)nc2C(=O)NS(C)(=O)=O)c2nc(N3Cc4cn(-c5ncccc5C)nc4C3)n(C)c(=O)c2c1` [Compound 701, (R)-6-chloro-3-((1-(3,6-dimethyl-2-(2-(3-methylpyridin-2-yl)-2,6-dihydropyrrolo[3,4-c]pyrazol-5(4H)-yl)-4-oxo-3,4-dihydroquinazolin-8-yl)ethyl)amino)-N-(methylsulfonyl) picolinamide], the IC50 in test [1] (setting [5]) is 250 to 500 nM; in test [2] (setting [6]), at least 5000 nM.

In the case of `Cc1cc([C@@H](C)Nc2ccc(Cl)nc2C(=O)NS(C)(=O)=O)c2nc(N3CCC4(CCCCOC4)CC3)n(C)c(=O)c2c1` [Compound 328, (R)-6-chloro-3-((1-(3,6-dimethyl-4-oxo-2-(8-oxa-3-azaspiro[5.6]dodecan-3-yl)-3,4-dihydroquinazolin-8-yl)ethyl)amino)-N-(methylsulfonyl) picolinamide], the IC50 was 250 to 500 nM in test [1] (setting [3]) and at least 5000 nM in test [2] (setting [4]).

In the case of `Cc1cc([C@@H](C)Nc2ccc(Cl)nc2C(=O)NS(C)(=O)=O)c2nc(N3CCC(n4cccn4)CC3)n(C)c(=O)c2c1` [Compound 199, (R)-3-((1-(2-(4-(1H-pyrazol-1-yl)piperidin-1-yl)-3,6-dimethyl-4-oxo-3,4-dihydroquinazolin-8-yl)ethyl)amino)-6-chloro-N-(methylsulfonyl) picolinamide], the IC50 is below 250 nM in test [1] (setting [3]) and 1000 to 5000 nM in test [2] (setting [4]).

As for `Cc1cc([C@@H](C)Nc2ccc(Cl)nc2C(=O)NS(C)(=O)=O)c2nc(N3C[C@@H]4[C@H](C3)[C@H]4c3cc(C)n(C4CC4)n3)n(C)c(=O)c2c1` [Compound 567, 6-chloro-3-(((R)-1-(2-((1R,5S,6R)-6-(1-cyclopropyl-5-methyl-1H-pyrazol-3-yl)-3-azabicyclo[3.1.0]hexan-3-yl)-3,6-dimethyl-4-oxo-3,4-dihydroquinazolin-8-yl)ethyl)amino)-N-(methylsulfonyl) picolinamide], the IC50 in test [1] (setting [5]) was 250 to 500 nM; in test [2] (setting [6]) it was at least 5000 nM.

Consider `Cc1cc([C@@H](C)Nc2ccc(Cl)nc2C(=O)NS(C)(=O)=O)c2nc(N3C[C@@H]4[C@H](C3)[C@H]4n3cc(Cl)cn3)n(C)c(=O)c2c1` [Compound 583, 6-chloro-3-(((R)-1-(2-((1R,5S,6S)-6-(4-chloro-1H-pyrazol-1-yl)-3-azabicyclo[3.1.0]hexan-3-yl)-3,6-dimethyl-4-oxo-3,4-dihydroquinazolin-8-yl)ethyl)amino)-N-(methylsulfonyl) picolinamide], for which the results for the half-maximal inhibitory concentration (IC50) in test [1] (setting [5]) and in test [2] (setting [6]) were 250 to 500 nM and at least 5000 nM, respectively.

As for `Cc1cc([C@@H](C)Nc2ccc(Cl)nc2C(=O)NS(C)(=O)=O)c2nc(N3CCC(n4ncc5cc(C#N)ccc54)CC3)n(C)c(=O)c2c1` [Compound 255, (R)-6-chloro-3-((1-(2-(4-(5-cyano-1H-indazol-1-yl)piperidin-1-yl)-3,6-dimethyl-4-oxo-3,4-dihydroquinazolin-8-yl)ethyl)amino)-N-(methylsulfonyl) picolinamide], the figures for the IC50 in test [1] (setting [3]) and in test [2] (setting [4]) were below 250 nM and 1000 to 5000 nM, respectively.

Regarding `Cc1cc([C@@H](C)Nc2ccc(Cl)nc2C(=O)NS(C)(=O)=O)c2nc(N3Cc4cn(-c5cnn(C)c5)nc4C3)n(C)c(=O)c2c1` [Compound 245, (R)-6-chloro-3-((1-(3,6-dimethyl-2-(2-(1-methyl-1H-pyrazol-4-yl)-2,6-dihydropyrrolo[3,4-c]pyrazol-5(4H)-yl)-4-oxo-3,4-dihydroquinazolin-8-yl)ethyl)amino)-N-(methylsulfonyl) picolinamide], the figures for the IC50 in test [1] (setting [3]) and in test [2] (setting [4]) were below 250 nM and 1000 to 5000 nM, respectively.
